This is an account of results in patent US20240327407A1, “NOVEL INHIBITORS OF AUTOTAXIN” (CADILA HEAL THCARE LIMITED, priority 2021, published 2024).

Structures are written as SMILES.

The target in this experiment is ATX (Mus musculus (Mouse), UniProt Q9R1E6). Briefly: Mice serum ATX inhibitory activity (IC50 determination). It is filed as biochemical. As to the method:
ATX Inhibitory activity was determined in a biochemical or whole blood assay as described previously (Bretschneider, T. et al., SLAS Discov 2017, 22, 425). The biochemical reaction consisted of 50 mM Tris (pH 8.0), 3 mM KCl, 1 mM CaCl2, 1 mM Mg Cl2, […] NaCl and 0.1% bovine serum albumin, which was supplemented with 5 nM recombinant rat ATX, 5 μM 18:1 LPC and the test compound (0.1-10 μM). The reaction was stopped at 2 h by the addition of butanol, prior to the RapidFire-MS-based analysis.
The whole blood assay consisted of 45 μL μL heparinized mice/rat whole blood and the test compound (0.12-100 μM). The reaction was stopped after 1 h at 37° C. by addition of 100 μL 40 mM disodium hydrogen phosphate buffer containing 30 mM citric acid (pH 4) and 1 μM 17:0 LPA (internal standard). Afterwards the samples were treated a described above and analysed by LC-MS/MS. The data was analyzed using graph pad prism (v 7.03) to arrive at the half-maximal inhibitory concentrations (IC50) of the test compounds.

Turning to `CC(C)[C@@H](NC(=O)c1cc(C(F)(F)F)ccc1F)C(=O)N1CCC2(CC1)C(=O)N(C)C(=O)C2c1ccccc1` (stereo partly drawn) [Compound 1, 2-fluoro-N-((2R)-3-methyl-1-(2-methyl-1,3-dioxo-4-phenyl-2,8-diazaspiro[4.5]decan-8-yl)-1-oxobutan-2-yl)-5-(trifluoromethyl)benzamide], half-maximal inhibition (IC50) was put at 0.091 µM.
`CC(C)[C@@H](NC(=O)c1cc(C(F)(F)F)ccc1F)C(=O)N1CCC2(CC1)C(=O)N(CCN)C(=O)C2c1ccccc1` (stereo partly drawn) [Compound 33, N-((2R)-1-(2-(2-aminoethyl)-1,3-dioxo-4-phenyl-2,8-diazaspiro[4.5]decan-8-yl)-3-methyl-1-oxobutan-2-yl)-2-fluoro-5-(trifluoromethyl)benzamide]: the midpoint of inhibition, the IC50, lay at 0.0698 µM.
Consider `CC(C)[C@@H](NC(=O)c1cc(C(F)(F)F)ccc1F)C(=O)N1CCC2(CC1)C(=O)N(C)CC2c1ccccc1` (stereo partly drawn) [Compound 44, 2-fluoro-N-((2R)-3-methyl-1-(2-methyl-1-oxo-4-phenyl-2,8-diazaspiro[4.5]decan-8-yl)-1-oxobutan-2-yl)-5-(trifluoromethyl)benzamide], for which the IC50 (as a rule, the concentration that inhibits the measured activity by half) was determined as 0.004 µM. This IC50 lies about 17-fold lower than the previous one.
As for `CC(C)[C@@H](NC(=O)c1cc(C(F)(F)F)ccc1F)C(=O)N1CCC2(CC1)C(=O)NCC2c1ccccc1` (stereo partly drawn) [Compound 45, 2-fluoro-N-((2R)-3-methyl-1-oxo-1-(1-oxo-4-phenyl-2,8-diazaspiro[4.5]decan-8-yl)butan-2-yl)-5-(trifluoromethyl)benzamide], inhibition was half-maximal at 0.0192 µM (IC50).
For the compound `CC(C)[C@@H](NC(=O)c1cc(C(F)(F)F)ccc1F)C(=O)N1CCC2(CC1)C(=O)N(C)CC2c1cccnc1` (stereo partly drawn) [Compound 56, 2-fluoro-N-((2R)-3-methyl-1-(2-methyl-1-oxo-4-(pyridin-3-yl)-2,8-diazaspiro[4.5]decan-8-yl)-1-oxobutan-2-yl)-5-(trifluoromethyl)benzamide], the IC50 is 0.0133 µM.
As for `CC(C)[C@@H](NC(=O)c1cc(C(F)(F)F)ccc1F)C(=O)N1CCC2(CC1)C(=O)NCC2c1cccnc1` (stereo partly drawn) [Compound 57, 2-fluoro-N-((2R)-3-methyl-1-oxo-1-(1-oxo-4-(pyridin-3-yl)-2,8-diazaspiro[4.5]decan-8-yl)butan-2-yl)-5-(trifluoromethyl)benzamide], it took 0.0562 µM to reach half-maximal inhibition (IC50).
As for `CC(C)[C@@H](NC(=O)c1cc(C(F)(F)F)ccc1F)C(=O)N1CCC2(CC1)C(=O)N(C)CC2c1ccc2[nH]ncc2c1` (stereo partly drawn) [Compound 58, N-((2R)-1-(4-(1H-indazol-5-yl)-2-methyl-1-oxo-2,8-diazaspiro[4.5]decan-8-yl)-3-methyl-1-oxobutan-2-yl)-2-fluoro-5-(trifluoromethyl)benzamide], the half-maximal inhibitory concentration (IC50) worked out at 0.0589 µM.
In the case of `CC(C)[C@@H](NC(=O)c1cc(C(F)(F)F)ccc1F)C(=O)N1CCC2(CC1)CN(C)CC2c1ccccc1` (stereo partly drawn) [Compound 62, 2-fluoro-N-((2R)-3-methyl-1-(2-methyl-4-phenyl-2,8-diazaspiro[4.5]decan-8-yl)-1-oxobutan-2-yl)-5-(trifluoromethyl)benzamide], the IC50 was 0.0066 µM. Against the preceding compound, the IC50 is about 8.9-fold lower.
As to `CC(C)[C@@H](NC(=O)c1cc(C(F)(F)F)ccc1F)C(=O)N1CCC2(CC1)CN(C)CC2c1cccnc1` (stereo partly drawn) [Compound 64, 2-fluoro-N-((2R)-3-methyl-1-(2-methyl-4-(pyridin-3-yl)-2,8-diazaspiro[4.5]decan-8-yl)-1-oxobutan-2-yl)-5-(trifluoromethyl)benzamide], the IC50 was 0.0134 µM.
In turn, `CC(C)[C@@H](NC(=O)c1cc(C(F)(F)F)ccc1F)C(=O)N1CCC2(CC1)CN(C)CC2c1ccc2[nH]ncc2c1` (stereo partly drawn) [Compound 65, N-((2R)-1-(4-(1H-indazol-5-yl)-2-methyl-2,8-diazaspiro[4.5]decan-8-yl)-3-methyl-1-oxobutan-2-yl)-2-fluoro-5-(trifluoromethyl)benzamide] registered an IC50 of 0.0069 µM.
The compound `CC(C)[C@@H](NC(=O)c1cc(C(F)(F)F)ccc1F)C(=O)N1CCC2(CC1)C(=O)NCC2c1ccc(F)cc1` (stereo partly drawn) [Compound 102, 2-fluoro-N-((2R)-1-(4-(4-fluorophenyl)-1-oxo-2,8-diazaspiro[4.5]decan-8-yl)-3-methyl-1-oxobutan-2-yl)-5-(trifluoromethyl)benzamide] displayed an IC50 of 0.0226 µM.
